Measurements taken from PubChem BioAssay (NCI).
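Compound exposure: 48 hours, 5 concentrations, 96-well plates. At the TGI there is no net growth.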

Assays:
Experiment in all cases: inhibition of tumour cell growth, NCI panel, 48 h
HCT-15 colon = tested on: HCT-15 colon
SW-620 colon = tested on: SW-620 colon
NCI-H522 lung = tested on: NCI-H522 lung
SK-MEL-5 melanoma = tested on: SK-MEL-5 melanoma
IGROV1 ovarian = tested on: IGROV1 ovarian
MDA-MB-435 = tested on: MDA-MB-435
SK-MEL-28 melanoma = tested on: SK-MEL-28 melanoma
HL-60(TB) leukemia = tested on: HL-60(TB) leukemia
U251 CNS = tested on: U251 CNS
RXF 393 renal = tested on: RXF 393 renal
SF-268 CNS = tested on: SF-268 CNS
786-0 renal = tested on: 786-0 renal
TK-10 renal = tested on: TK-10 renal
SNB-19 CNS = tested on: SNB-19 CNS
T-47D breast = tested on: T-47D breast
OVCAR-3 ovarian = tested on: OVCAR-3 ovarian

SMILES	TGI (HCT-15 colon)	TGI (SW-620 colon)	TGI (NCI-H522 lung)	TGI (SK-MEL-5 melanoma)	TGI (IGROV1 ovarian)	TGI (MDA-MB-435)	TGI (SK-MEL-28 melanoma)	TGI (HL-60(TB) leukemia)	TGI (U251 CNS)	TGI (RXF 393 renal)	TGI (SF-268 CNS)	TGI (786-0 renal)	TGI (TK-10 renal)	TGI (SNB-19 CNS)	TGI (T-47D breast)	TGI (OVCAR-3 ovarian)
Fc1ccc(N2C(=S)SC(=Nc3ccccc3)C2=Nc2ccccc2)cc1	> 100 µM	> 100 µM	> 100 µM	> 100 µM	> 100 µM	> 100 µM	> 100 µM	> 100 µM	> 100 µM	> 100 µM	> 100 µM	> 100 µM	> 100 µM	> 100 µM	> 100 µM	> 100 µM
Nc1ncnc2oc(C3OC(COC(=O)c4ccccc4)C(OC(=O)c4ccccc4)C3OC(=O)c3ccccc3)nc12 (configuration not stated)	> 100 µM	> 100 µM	> 100 µM	> 100 µM	> 100 µM	> 100 µM	> 100 µM	> 100 µM	> 100 µM	> 100 µM	> 100 µM	> 100 µM	> 100 µM	> 100 µM	> 100 µM	> 100 µM
CC1(c2nc3ccccc3[nH]2)CCC(C(=O)O)C(C)(C)O1 (configuration not stated)	> 100 µM	> 100 µM	> 100 µM	> 100 µM	> 100 µM	> 100 µM	> 100 µM	> 100 µM	> 100 µM	> 100 µM	> 100 µM	> 100 µM	> 100 µM	> 100 µM	> 100 µM	> 100 µM
N[C@H](C(=O)O)[C@@H]1CC(Br)=NO1	> 100 µM	> 100 µM	> 100 µM	> 100 µM	> 100 µM	> 100 µM	> 100 µM	> 100 µM	> 100 µM	> 100 µM	> 100 µM	> 100 µM	> 100 µM	> 100 µM	> 100 µM	> 100 µM
O=[N+]([O-])/C(C(Cl)=C(Cl)Cl)=C(/Cl)SCc1ccccc1	19.2 µM	10.2 µM	7.8 µM	20.8 µM	35.7 µM	5.12 µM	20.8 µM	0.437 µM	25.1 µM	9.35 µM	44.6 µM	3.09 µM	18.9 µM	43.2 µM	39.2 µM	12.1 µM
O=C(NC1CCN(Cc2ccccc2)CC1)c1ccc(I)cc1	> 100 µM	> 100 µM	> 100 µM	> 100 µM	> 100 µM	> 100 µM	> 100 µM	> 100 µM	> 100 µM	85.7 µM	> 100 µM	> 100 µM	> 100 µM	> 100 µM	> 100 µM	> 100 µM
CCOP1(=O)CC(C)=C(Cl)C(O)C1 (configuration not stated)	> 100 µM	> 100 µM	> 100 µM	> 100 µM	> 100 µM	> 100 µM	> 100 µM	> 100 µM	> 100 µM	> 100 µM	> 100 µM	> 100 µM	> 100 µM	> 100 µM	> 100 µM	> 100 µM
CC1(C)OC(=S)N(c2ccccc2)C12C=Cc1ccccc1O2 (configuration not stated)	> 100 µM	> 100 µM	> 100 µM	> 100 µM	> 100 µM	> 100 µM	> 100 µM	52.4 µM	> 100 µM	> 100 µM	> 100 µM	> 100 µM	> 100 µM	> 100 µM	82.4 µM	> 100 µM
CC(=O)OCC(=O)O[C@@H]1[C@H]2[C@@H](OC(=O)c3ccccc3)[C@@H](C)C[C@]2(O)[C@H](OC(C)=O)[C@@]2(C)C(OC(C)=O)[C@]1(OC(C)=O)C[C@H]1C(=O)C(C)(C)C[C@@H]12 (some centres not stated)	> 50 µM	> 50 µM	> 50 µM	> 50 µM	> 50 µM	> 50 µM	> 50 µM	> 50 µM	> 50 µM	> 50 µM	> 50 µM	> 50 µM	> 50 µM	> 50 µM	> 50 µM	> 50 µM
c1cc2nnc1SCCCSc1ccc(nn1)SCCCS2	> 100 µM	> 100 µM	> 100 µM	> 100 µM	> 81.3 µM	> 100 µM	> 100 µM	> 92.4 µM	> 86.9 µM	75.5 µM	> 100 µM	> 100 µM	98.8 µM	> 93.2 µM	> 100 µM	> 74.1 µM
CC(=O)Oc1ccc(/C=C/C(=O)OCCCOC(=O)/C=C/c2ccc(OC(C)=O)c(OC(C)=O)c2)cc1OC(C)=O	> 100 µM	> 100 µM	> 100 µM	> 100 µM	> 100 µM	> 100 µM	> 100 µM	18.2 µM	> 100 µM	> 100 µM	> 100 µM	> 100 µM	> 100 µM	> 100 µM	> 100 µM	> 100 µM
Clc1cc(Cl)cc(N=C/C=C/Nc2cc(Cl)cc(Cl)c2)c1	30.6 µM	37.6 µM	34.1 µM	34.2 µM	55.8 µM	35.9 µM	47 µM	49.7 µM	33.5 µM	36.8 µM	47.6 µM	31.4 µM	87 µM	53.8 µM	> 100 µM	27.7 µM
Cc1nc2ccc(C(F)(F)F)cc2nc1NCc1ccc(Cl)c(Cl)c1	25.3 µM	34.7 µM	28.8 µM	33.8 µM	31.3 µM	31.8 µM	33.9 µM	34.7 µM	30.6 µM	26.5 µM	34 µM	30.3 µM	21.2 µM	36.6 µM	9 µM	26.3 µM
Cc1cc(N(CCC#N)CCC#N)ccc1/C(N=Nc1cccc(Cl)c1)=N/NC(=O)c1cc(Cl)ccc1O	24.4 µM	> 100 µM	49 µM	26.9 µM	10.2 µM	> 100 µM	49.9 µM	9.06 µM	> 100 µM	35.3 µM	75.2 µM	64.8 µM	59.7 µM	> 100 µM	60.6 µM	16.5 µM
COC(=O)c1cc2c(c3c1CC(Cc1ccccc1)C3=O)CCC2 (configuration not stated)	> 100 µM	> 100 µM	> 100 µM	> 100 µM	> 100 µM	> 100 µM	> 100 µM	> 100 µM	> 100 µM	> 100 µM	> 100 µM	> 100 µM	> 100 µM	> 100 µM	> 100 µM	> 100 µM
CCC(=O)C(CCN1CCC2(CCCc3ccccc32)CC1)(c1ccccc1)c1ccccc1	15.1 µM	12.9 µM	7.14 µM	2.9 µM	10.3 µM	12.5 µM	14 µM	5.12 µM	14 µM	6.18 µM	16.4 µM	6.09 µM	11 µM	20.6 µM	10.2 µM	6.67 µM
CC1(C)CC[C@]2(C)CC[C@]3(C)C(=CC[C@@H]4[C@@]5(C)CCC(=O)C(C)(C)[C@@H]5[C@H](O)C[C@]43C)[C@@H]2C1	39.3 µM	42.2 µM	31.9 µM	31.5 µM	32.1 µM	39.7 µM	34.8 µM	> 100 µM	30.5 µM	31.1 µM	32 µM	30.9 µM	30.1 µM	30.6 µM	37.7 µM	31 µM
CC(=O)NC1C(OCc2ccccc2)OC(CO)C(O)C1OC(C)C(=O)NC(C)C(=O)NC(CCC(=O)NCCCCNc1c2ccccc2nc2cccc([N+](=O)[O-])c12)C(N)=O (configuration not stated)	0.0495 µM	0.0785 µM	0.286 µM	0.119 µM	0.612 µM	0.105 µM	0.409 µM	0.207 µM	0.303 µM	0.0676 µM	0.316 µM	0.146 µM	0.128 µM	0.242 µM	0.961 µM	1.64 µM
CC1=NC(=Cc2ccccc2O)C(=O)N1n1c(-c2ccccc2)nc2ccccc2c1=O	> 100 µM	> 100 µM	> 100 µM	61.4 µM	> 100 µM	> 100 µM	> 100 µM	> 100 µM	> 100 µM	> 100 µM	> 100 µM	> 100 µM	> 100 µM	> 100 µM	> 100 µM	> 100 µM
COc1ccc(/C(Br)=C2\OC(=O)c3ccccc32)cc1	> 10 µM	> 10 µM	> 10 µM	> 10 µM	> 10 µM	> 10 µM	> 10 µM	> 10 µM	> 10 µM	> 10 µM	> 10 µM	> 10 µM	> 10 µM	> 10 µM	> 10 µM	> 10 µM
Oc1[nH]c2ccccc2c1N=NC(=S)Nc1ccccc1Cl	> 100 µM	40.3 µM	> 100 µM	15.8 µM	29.8 µM	57.5 µM	75.6 µM	18.7 µM	55 µM	31.4 µM	56.9 µM	20.8 µM	10.3 µM	> 100 µM	> 100 µM	37.6 µM
CC(C)=CCN1CC(C)C(=O)Nc2ccccc21 (configuration not stated)	> 100 µM	> 100 µM	> 100 µM	> 100 µM	> 100 µM	> 100 µM	> 100 µM	> 100 µM	> 100 µM	> 100 µM	> 100 µM	> 100 µM	> 100 µM	> 100 µM	> 100 µM	> 100 µM
